Measured values as given in US8975265B2, “Substituted imidazo[1,2-a]pyrimidines and —pyridines” (Bayer Intellectual Property GmbH, priority 2010, dated 2015).
pIC50: −log10 of the molar value. Read-outs that look alike come from different tables or passages of the source.

Tests used:
LnCAP = assay: Tumor cell proliferation assay (CellTiter-Glo, 72 h), LnCAP; format: cell-based; conditions: Homo sapiens, 72h drug exposure
Protocol: Compounds were tested in a cell-based assay that measures the capacity of the compounds to inhibit tumour cell proliferation following a 72h drug exposure. Cell viability is determined using CellTiter-Glow® (CTG, Promega, cat# G7571/2/3). The CellTiter-Glo® Luminescent Cell Viability Assay is a homogeneous method to determine the number of viable cells in culture. Detection is based on using the luciferase reaction to measure the amount of ATP from viable cells. The amount of ATP in cells correlates with cell viability. Within minutes after a loss of membrane integrity, cells lose the ability to synthesize ATP, and endogenous ATPases destroy any remaining ATP; thus the levels of ATP fall precipitously.
Cells were plated at 3000-5000 cells/well (depending on the cell lines) in 90 μL growth medium on MTPs (Corning; #3603, black plate, clear flat bottom). For each cell line assayed, cells were plated onto a separate plate for determination of […] at t=0 hour and t=72 hour time points. Following overnight incubation at 37° C., chemiluminescence values for the t=0 samples were determined after adding 10 μl medium and 100 μl CTG solution according to manufacture protocol. Plates for the t=72 hour time points were treated with compounds diluted into growth medium at ten times final concentration added in 10 μL to the cell culture plate. Cells were then incubated for 72 hours at 37° C. Chemiluminescence values for the t=72 hour samples were determined. […] Experiments were controlled using a reference compound as standard.

[1] = test system: KPL-4 breast cancer cell line; assay: Tumor cell proliferation assay (CellTiter-Glo, 72 h), KPL-4; format: cell-based; conditions: KPL4, 72h drug exposure
Outline: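 KPL-4 cells were treated with compound for 72 h at 37°C. Viability was measured as ATP by CellTiter-Glo luminescence, with a separate t=0 plate read after overnight attachment. A reference compound was run as standard.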

[2] = molecular target: His-tagged human recombinant kinase full-length Akt1 (Homo sapiens (Human), UniProt P31749); assay: Akt1 kinase assay (TR-FRET); format: biochemical; conditions: 10 μM ATP; read-out: Akt1, median IC50
His-tagged human recombinant kinase full-length Akt1, sequence (P31749 whole entry): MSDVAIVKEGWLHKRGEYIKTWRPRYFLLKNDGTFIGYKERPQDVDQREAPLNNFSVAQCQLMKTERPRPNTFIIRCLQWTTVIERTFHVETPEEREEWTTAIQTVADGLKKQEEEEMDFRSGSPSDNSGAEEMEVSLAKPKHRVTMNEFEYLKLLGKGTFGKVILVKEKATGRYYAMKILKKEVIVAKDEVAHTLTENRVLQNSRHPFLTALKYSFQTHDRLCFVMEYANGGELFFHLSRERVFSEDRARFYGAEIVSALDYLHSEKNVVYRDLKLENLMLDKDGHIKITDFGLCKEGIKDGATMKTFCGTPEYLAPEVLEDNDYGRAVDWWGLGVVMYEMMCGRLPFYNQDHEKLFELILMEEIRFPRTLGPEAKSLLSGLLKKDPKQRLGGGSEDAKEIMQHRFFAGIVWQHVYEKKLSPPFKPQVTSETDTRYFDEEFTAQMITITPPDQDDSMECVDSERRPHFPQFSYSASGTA
Outline: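 Full-length His-tagged Akt1 (about 0.05 ng/μl final) preincubated 15 min at 22 °C with compound in 50 mM TRIS/HCl pH 7.5, 5 mM MgCl2, 1 mM DTT, 0.02% Triton X-100; biotinylated peptide substrate. Phosphopeptide detected by TR-FRET (Eu-chelate antibody to streptavidin-XL665) after 1 h at 22 °C.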

[3] = test system: p-AKT1/2/3-S473 in KPL4 breast tumour cell line; assay: Cellular p-AKT1/2/3-S473 assay; format: cell-based; conditions: KPL4 breast tumour cell line, 2 hours treatment; read-out: pAKT-S743 median IC50
Outline: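 KPL4 cells (PIK3CA H1047R, HER2 0/E, hormone independent) were seeded at 60–80% confluency, cultured overnight, then exposed to compound for 2 h at 37 °C. pAKT-S473 and total AKT measured together by MSD Akt Duplex on 20 µg extract; pAKT expressed as % of total AKT, at least duplicate with independent repeats.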

MCF7 = assay: Tumor cell proliferation assay (CellTiter-Glo, 72 h), MCF7; format: cell-based; conditions: Homo sapiens, 72h drug exposure
Outline: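 Cells seeded at 3000–5000/well and incubated overnight, then exposed to compound for 72 h at 37 °C. Viability measured by CellTiter-Glo ATP luminescence, with a separate plate read at t=0.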

[4] = test system: p-4E-BP1-T70 in KPL4 breast tumour cell line; assay: Cellular p-4E-BP1-T70 assay; format: cell-based; conditions: 2 hours treatment, read-out: P4EBP1-T70 median IC50
Protocol: The molecular mechanism of action was investigated in a set of experiments to assess the inhibition of the PI3K-AKT-mTOR pathway in responsive cell lines such as KPL4 breast tumour cell line (PIK3CAH1047R, HER20/E and hormone independent). The phospho-substrates of PI3K-AKT-mTOR axis were used as the read-outs to reflect pathway inhibition. Cells were seeded at 60-80% confluency per well in 96-well cell culture plates. After overnight incubation at 37° C. 5% CO2, cells were treated with compounds and vehicle at 37° C. for 2 hours. Thereafter, cells were lysed in 150 μl lysis buffer and the levels of phospho-AKT at T308 and S473 and p-4E-BP1 at T70 sites were determined with the corresponding AlphaScreen® SureFire® assay kits (Perkin Elmer: 4E-BP1 Assay Kit Cat # TRG4E2S10K; Akt 1/2/3 p-Ser 473 #TGRA4S500 and Akt 1/2/3 p-Thr 308 #TGRA3S500 as well as IgG detection Kit #6760617M) as described in the manuals. All measurements where at least done in duplicates and confirmed by independent repetition.

[5] = test system: p-AKT S473 in PC3 human prostate tumours; assay: In vivo xenograft mechanism of action study; parameters: species or system athymic nude mice; conditions: Mus musculus, po, PC3 tumours in nude mice, once 50 mg/kg p.o.
Description: In Vivo Xenograft Mechanism of Action Study
To this extent PC3 human prostate tumours were xenografted onto athymic nude mice. PC3 tumour cells were cultivated according to ATCC protocols in recommended media contained 10% FCS and harvested for transplantation in a subconfluent (70%) state. 3×10^6 tumour cells suspended in 50% Matrigel were subcutaneously implantated into the inguinal region of male mice. Tumours were allowed to grow to the predetermined size of 60-80 mm^2. When the tumours were approximately in size, the animals were randomized to treatment and control groups (groups size: 9 animals) and treatment was started. Animals were treated once with 50 mg/kg compound or vehicle per oral administration (p.o.) carried out via a gastric tube. Treatment of each animal was based on individual body weight. At 2, 5 and 24 hours post treatment 3 animals each were sacrificed and the PC3 tumours excised. Tumour samples of approximately 5×5×5 mm were lysed on ice in MSD lysis buffer in the presence of protease and phosphatase inhibitors using Tissue Lyzer (Qiagen, Germany). The levels of p-AKT S473 in extracts from tumour tissue were analysed in an ELISA based assay. This assay is based on the “Akt Duplex” of the MULTI-SPOT® Assay System (Fa. Meso Scale Discovery, Cat# N41100B-1) following manufacturers instructions. Each assay used 20 μg of protein extract and measured total AKT and p-AKT content simultaneously in one well. All measurements where at least done in duplicates and confirmed by independent repetition.
Values for P-AKT are expressed as percentage of P-AKT level compared to total-AKT content of the extracts. Vehicle treated tumours were analyzed to determine the basal level of P-AKT in this model and used as a normalization control to determine the % P-AKT relative to vehicle levels.

[6] = 2 hours post treatment, read-out: P-AKT % relative to control at 2 hours
[7] = 5 hours post treatment, read-out: P-AKT % relative to control at 5 hours

| Compound | pIC50 (LnCAP) | pIC50 [1] | pIC50 [2] | pIC50 [3] | pIC50 (MCF7) | pIC50 [4] | response vs control in vivo at 50 mg/kg [5, 6] [%] | response vs control in vivo at 50 mg/kg [5, 7] [%] |
| --- | --- | --- | --- | --- | --- | --- | --- | --- |
| Cn1cc(-c2ccc3nc(-c4ccc(C5(N)CCC5)cc4)c(-c4ccccc4)n3c2)cn1 [Example 2-134] | 5.74 | – | 6.16 | 6.88 | – | – | – | – |
| Cn1cncc1-c1ccc2nc(-c3ccc(C4(N)CCC4)cc3)c(-c3ccccc3)n2c1 [Example 2-133] | 5.77 | 5.70 | – | 6.61 | – | – | – | – |
| CCOC(=O)c1ccc2nc(-c3ccc(C4(N)CCC4)cc3)c(-c3ccccc3)n2c1 [Example 2-143] | 5.74 | 5.02 | 7.03 | 6.05 | – | 5.92 | – | – |
| CC(=O)c1ccc2nc(-c3ccc(C4(N)CCC4)cc3)c(-c3ccccc3)n2c1 [Example 2-144] | – | 5.77 | 7.26 | 7.04 | 5.89 | 5.88 | 6.3 | 8 |
| NC(=O)c1cc(Cl)c2nc(-c3ccc(C4(N)CCC4)cc3)c(-c3ccccc3)n2c1 [Example 6-1, 2-[4-(1-amino-cyclobutyl)-phenyl]-8-chloro-3-phenyl-imidazo[1,2-a]pyridine-6-carboxylic acid amide] | 6.40 | 6.52 | 7.92 | 8.30 | 6.52 | – | 7.7 | 7.5 |
| NC1(c2ccc(-c3nc4cc(-c5cccnc5)ccn4c3-c3ccccc3)cc2)CCC1 [Example 2-110] | 6.30 | 5.77 | 6.89 | 7.39 | 6.15 | – | 10.2 | 16.4 |
| COc1cc(Cl)cn2c(-c3ccccc3)c(-c3ccc(C4(N)CCC4)cc3)nc12 [Example 2-145] | – | 6.00 | 7.62 | 6.98 | 6.52 | 5.92 | 33 | 38 |
| NC1(c2ccc(-c3nc4c(F)cc(F)cn4c3-c3ccccc3)cc2)CCC1 [Example 2-75] | – | 5.96 | 7.28 | 7.10 | 6.22 | 5.80 | 5.5 | 6.2 |
| CCc1ccn2c(-c3ccccc3)c(-c3ccc(C4(N)CCC4)cc3)nc2c1 [Example 2-21] | 5.72 | 5.70 | 5.78 | 6.27 | 5.70 | – | – | – |

The remaining molecules from weak to strong by pIC50 [3], led by results:

| pIC50 (LnCAP) | pIC50 [1] | pIC50 [2] | pIC50 [3] | pIC50 (MCF7) | pIC50 [4] | Compound | response vs control in vivo at 50 mg/kg [5, 6] [%] | response vs control in vivo at 50 mg/kg [5, 7] [%] |
| --- | --- | --- | --- | --- | --- | --- | --- | --- |
| 5.00 | 5.51 | 5.46 | 5.51 | – | – | COC(=O)CCc1ccn2c(-c3ccccc3)c(-c3ccc(C4(N)CCC4)cc3)nc2c1 [Example 2-125] | – | – |
| 5.92 | 5.27 | 6.88 | 5.77 | – | 5.31 | NC1(c2ccc(-c3nc4cc(C(=O)NO)ccn4c3-c3ccccc3)cc2)CCC1 [Example 2-127] | – | – |
| – | 5.37 | 6.64 | 5.85 | 5.37 | 5.81 | Cc1cc(-c2ccn[nH]2)c2nc(-c3ccc(C4(N)CCC4)cc3)c(-c3ccccc3)n2c1 [Example 2-92] | 34.6 | 22 |
| 5.70 | 5.66 | 5.82 | 6.23 | – | – | NC1(c2ccc(-c3nc4ccc(-c5cccnc5O)cn4c3-c3ccccc3)cc2)CCC1 [Example 11-0, 3-{2-[4-(1-amino-cyclobutyl)-phenyl]-3-phenyl-imidazo[1,2-a]pyridin-6-yl}-pyridin-2-ol] | – | – |
| 5.77 | 5.72 | 6.16 | 6.47 | – | – | Cc1cc(-c2ccc3nc(-c4ccc(C5(N)CCC5)cc4)c(-c4ccccc4)n3c2)[nH]n1 [Example 12-0, 1-{4-[6(5-methyl-2H-pyrazol-3-yl)-3-phenyl-imidazo[1,2-a]pyridin-2-yl]-phenyl}-cyclobutylamine] | – | – |
| 5.77 | 5.74 | – | 6.72 | – | – | NC1(c2ccc(-c3nc4cc(-c5cnc[nH]5)ccn4c3-c3ccccc3)cc2)CCC1 [Example 2-115] | – | – |
| 6.00 | 5.80 | 6.22 | 6.90 | – | – | CCNC(=O)c1ccn2c(-c3ccccc3)c(-c3ccc(C4(N)CCC4)cc3)nc2c1 [Example 2-126] | – | – |
| 5.96 | 6.05 | 7.62 | 7.46 | 6.40 | 5.99 | COc1cc(C(N)=O)cn2c(-c3ccccc3)c(-c3ccc(C4(N)CCC4)cc3)nc12 [Example 1-13] | 95.7 | 152 |
